Laboratory results taken from patent US20240424134A1, “PEPTIDE HAVING INDEPENDENTLY STABILIZED HYDROPHOBIC ALPHA HELIX, PEPTIDE COMPLEX COMPRISING SAME AND USES THEREOF” (UIF (University Industry Foundation), Yonsei University, priority 2022, published 2024).
Entries after “also recorded” stand apart in the source; their conditions may differ. Each block holds one substance with its values, some of them ahead of it. Non-standard residues stand in square brackets, D forms with d. No end group written: not given here. Aib = CC(C)(N)C(=O)O

Tests used:
[1] = CD (circular dichroism) spectroscopy of α-helix structure; type: physicochemical
Procedure: To evaluate the structures of a linear plasmid DNA and peptides, CD spectra were analyzed using a Chirascan CD spectrometer (Applied Photophysics, UK). […] The final concentration of the linear plasmid DNA was 30 ng/μL. All the samples were dissolved in H2O. For the formation of the artificial chromosome, a mixture of the peptide and the DNA was incubated for 12 days or longer. Scanning was performed using a 2-mm path-length cuvette. Each scan was repeated three times and averaged. MRE (mean residue ellipticity) was calculated based on the number of amino acid residues.
CD (circular dichroism) spectroscopy was performed as follows.
The CD spectra were analyzed using a Chirascan CD spectrometer (Applied Photophysics, UK). […] All the samples were dissolved in H2O. Each scan was repeated three times using a 2-mm path-length cuvette and averaged. MRE (mean residue ellipticity) was calculated based on the number of amino acid residues.

[2] = AFM analysis of self-assembled peptide complexes; type: physicochemical; conditions: for Average diameter (nm) / AFM morphology: Table 12, self-assembled structure; for AFM morphology: 25 μM in distilled water
Procedure: AFM was performed using an NX10 system (Park Systems, Korea) in a non-contact mode with PPP-NCHR AFM probes (Nanosensors, Switzerland). The DNA concentration ranged from 1 to 30 ng/μL and the peptide concentration ranged from 1 to 32 μM (in H2O). 2 μL of the sample solution was cast onto a freshly cleaved mica surface and dried. The data obtained by the SmartScan program (Park Systems, Korea) was analyzed using the XEI program (Park Systems, Korea).
The CD spectroscopy was performed in the same manner as in Test Example 2 and the AFM was performed using the NX10 system (Park Systems, Korea) in a non-contact mode with PPP-NCHR AFM probes (Nanosensors, Switzerland). The peptide complex concentration ranged from 1 to 32 μM (in H2O). 2 μL of the sample solution was cast onto a freshly cleaved mica surface and dried. The data obtained by the SmartScan program (Park Systems, Korea) were analyzed using the XEI program (Park Systems, Korea).
The peptide complexes of Examples 37-40 were imaged by AFM. 25 μM of the peptide complex was dissolved in distilled water, sonicated for 5 minutes, incubated overnight and dropped on mica for measurement.

[3] = Table 13, cyclic peptide complexes
[4] = Table 11, peptide complexes of Examples 37-97
[5] = Table 14, coil-rod-coil peptide complexes
[6] = Table 9, linear and cyclic αm-PEG10 peptide complexes, in H2O
[7] = Table 10, hydrophobic peptides of Examples 1-36

Substance: WAUAUAUAUAUAUAUAUAUGHHHHHHHHHHGRGDRGDRGDG [Example 109]
[θ]222/[θ]208 [1, 3]: 0.89

Substance: RGDRGDRGDRGDAUAUAUAUAUAUAUAUAUAUAR [Example 72]
minimum at 222 and 208 nm in the spectra ([1]; Table 11): no minimum was observed

Substance: Example 38: peptide complex (Wαm-RGD), SEQ ID NO 38 (L[Aib]L[Aib]L[Aib]L[Aib]LGRGDRGDG)
self-assembly behavior in an aqueous solvent ([2]; AFM): spherical particles
Average diameter (nm) [2]: 50-200 nm
AFM morphology [2]: Vesicle
θ222 nm/θ208 nm ratio [1, 4]: 0.44

Substance: Example 43: peptide complex (Wαm-RGD, Wαm-GS), SEQ ID NO 43 (AXAXAXAXAXAXAXAXAXAXAGSGSG; SITE 2 2-aminoisobutyric acid; SITE 4 2-aminoisobutyric acid; SITE 6 2-aminoisobutyric acid; SITE 8 2-aminoisobutyric acid; SITE 10 2-aminoisobutyric acid; SITE 12 2-aminoisobutyric acid; SITE 14 2-aminoisobutyric acid; SITE 16 2-aminoisobutyric acid; SITE 18 2-aminoisobutyric acid; SITE 20 2-aminoisobutyric acid)
θ222 nm/θ208 nm ratio [1, 4]: 1.15

Substance: EAUAUAUAUAUAUAUAUAUAUA(PEG8)2 [Example 90]
Average diameter (nm) [2]: 20-30 nm
AFM morphology [2]: Micelle
θ222 nm/θ208 nm ratio [1, 4]: 1.21

Substance: Example 39: peptide complex (Wαm-RGD), SEQ ID NO 39 (A[Aib]A[Aib]A[Aib]A[Aib]A[Aib]A[Aib]A[Aib]AGRGDRGDG)
average diameter ([2]; AFM): 20 nm
self-assembly behavior in an aqueous solvent ([2]; AFM): self-assembled into spherical particles such as micelles; also recorded: micelle particles
average height ([2]; AFM, FIG. 80): 2-4 nm
length of micelle particles ([2]; AFM, FIG. 80): 6-10 nm
Average diameter (nm) [2]: 20 nm
AFM morphology [2]: Micelle
θ222 nm/θ208 nm ratio [1, 4]: 0.7

Substance: Example 41: peptide complex (Wαm-RGD, Wαm-GS), SEQ ID NO 41 (A[Aib]A[Aib]A[Aib]A[Aib]A[Aib]A[Aib]A[Aib]A[Aib]A[Aib]A[Aib]AGRGDRGDRGDG)
Average diameter (nm) [2]: 20-40 nm
AFM morphology [2]: Micelle
θ222 nm/θ208 nm ratio [1, 4]: 0.91

Substance: RRRAUAUAUAUAUAUAUAUAUAUAGRGDRGDRGDG (RRRA[Aib]A[Aib]A[Aib]A[Aib]A[Aib]A[Aib]A[Aib]A[Aib]A[Aib]A[Aib]AGRGDRGDRGDG) [Example 69]
Average diameter (nm) [2]: 40-260 nm
AFM morphology [2]: Vesicle
θ222 nm/θ208 nm ratio [1, 4]: 0.88

Substance: (PEG2)5RRRRRR(PEG2)5WAUAUAUAUAUAUAUAU [Example 111]
[θ]222/[θ]208 [1, 3]: 0.95

Substance: AUAUAUAUA [Example 2]
θ222 nm/θ208 nm ratio [1, 7]: 0.72

Substance: RAUAUAUAUAUAUAUAUAUAUARGDRGDRGD [Example 64]
Average diameter (nm) [2]: 30-40 nm
AFM morphology [2]: Micelle
θ222 nm/θ208 nm ratio [1, 4]: 1.1

Substance: EAUAUAUAUAUAUAUAUAUAUARGDRGDRGD (EA[Aib]A[Aib]A[Aib]A[Aib]A[Aib]A[Aib]A[Aib]A[Aib]A[Aib]A[Aib]ARGDRGDRGD) [Example 94]
θ222 nm/θ208 nm ratio [1, 4]: 1.06

Substance: (PEG8)2 AUAUAUAUAUAUAUA [Example 56]
Average diameter (nm) [2]: 20-40 nm
AFM morphology [2]: Micelle
θ222 nm/θ208 nm ratio [1, 4]: 1.11

Substance: WAUAUAUAUAUAUGHHHHHHHHHHGRGDRGDRGDG [Example 106]
[θ]222/[θ]208 [1, 3]: 0.65

Substance: WAUAUAUAUAUAUAUAU(PEG2)5 [Example 50]
[θ]222/[θ]208 [1, 6]: 1.10
θ222 nm/θ208 nm ratio [1, 4]: 1.10

Substance: (PEG8)AUAUAUAUAUAUAUA(PEG8)2 [Example 120]
[θ]222/[θ]208 [1, 5]: 0.83

Substance: RGDRGDAUAUAUAUAUAUAUAUAUAUARR [Example 73]
θ222 nm/θ208 nm ratio [1, 4]: 1.1

Substance: (PEG8)2AUAUAUAUA(PEG8)2 [Example 123]
[θ]222/[θ]208 [1, 5]: 0.6

Substance: WAUAUAUAU(PEG2)5 [Example 46]
θ222 nm/θ208 nm ratio [1, 4]: 0.72

Substance: WAUAUAUAUAUGHHHHHHHHHHGRGDRGDRGDG [Example 105]
[θ]222/[θ]208 [1, 3]: 0.38

Substance: Example 45: peptide complex (Wαm-RGD, Wαm-GS), SEQ ID NO 45 (A[Aib]A[Aib]A[Aib]A[Aib]A[Aib]A[Aib]A[Aib]A[Aib]A[Aib]A[Aib]AGSGSGSGSG)
θ222 nm/θ208 nm ratio [1, 4]: 1.09

Substance: (PEG8)AUAUAUAUA(PEG8)2 [Example 119]
[θ]222/[θ]208 [1, 5]: 0.61

Substance: WAUAUAUAUAUAUAUGHHHHHHHHHHGRGDRGDRGDG [Example 107]
[θ]222/[θ]208 [1, 3]: 0.71

Substance: WAUAUAUAUAUAUAUAUAU(PEG2)5 [Example 51]
θ222 nm/θ208 nm ratio [1, 4]: 1.19

More lines, main results first:

[θ]222/[θ]208 [1, 3]: 1.21
Substance: WAUAUAUAUAUAUAUAUAU(PEG2)5 [Example 103]

[θ]222/[θ]208 [1, 5]: 1.15
Substance: GSGAUAUAUAUAUAUAUAUAUAUAGSG [Example 116]

Average diameter (nm) [2]: 90-250 nm
AFM morphology [2]: Vesicle
θ222 nm/θ208 nm ratio [1, 4]: 1.13
Substance: RRAUAUAUAUAUAUAUAUAUAUA(PEG8)2 [Example 61]

[θ]222/[θ]208 [1, 5]: 1.04
Substance: (PEG8)AUAUAUAUAUAUAUAUAUAUA(PEG8)2 [Example 121]

Average diameter (nm) [2]: 20-30 nm
AFM morphology [2]: Micelle
θ222 nm/θ208 nm ratio [1, 4]: 1.11
Substance: AUAUAUAUAUAUAUA(PEG8)2 [Example 53]

Average diameter (nm) [2]: 110-150 nm
AFM morphology [2]: Vesicle
θ222 nm/θ208 nm ratio [1, 4]: 1.08
Substance: RRRAUAUAUAUAUAUAUAUAUAUA(PEG8)2 [Example 62]

[θ]222/[θ]208 [1, 3]: 0.83
Substance: WAUAUAUAUAUAUAUAUGHHHHHHHHHHGRGDRGDRGDG [Example 108]

[θ]222/[θ]208 [1, 5]: 1.07
Substance: GSGSGAUAUAUAUAUAUAUAUAUAUAGSGSG [Example 117]

[θ]222/[θ]208 [1, 3]: 0.2
Substance: WAUAUAUAUGHHHHHHHHHHGRGDRGDRGDG [Example 104]

[θ]222/[θ]208 [1, 5]: 0.78
Substance: (PEG8)2AUAUAUAUAUAUAUA(PEG8)2 [Example 124]

[θ]222/[θ]208 [1, 5]: 1.2
Substance: (PEG10)2AUAUAUAUAUAUAUAUAUAUA(PEG10)2 [Example 127]

AFM morphology [2]: Not assembled
θ222 nm/θ208 nm ratio [1, 4]: 0.54
Substance: AUAUAUAUA(PEG8)2 [Example 52]

Average diameter (nm) [2]: 20-30 nm
AFM morphology [2]: Micelle
θ222 nm/θ208 nm ratio [1, 4]: 1.18
Substance: EEAUAUAUAUAUAUAUAUAUAUA(PEG8)2 [Example 91]

[θ]222/[θ]208 [1, 6]: 1.01
[θ]222/[θ]208 [1, 3]: 1.01
Substance: WAUAUAUAUAUAUAU(PEG2)5 [Example 101]

θ222 nm/θ208 nm ratio [1, 7]: 1.26
Substance: AUAUAUAUAUAUAUAUAUAUA [Example 14]
α-helix structure (in words) ([1]; from CD spectra): monomeric, nonpolar and perfect α-helix (MNP-helix) structure

θ222 nm/θ208 nm ratio [1, 7]: 1.13
Substance: AUAUAUAUAUAUAUA [Example 8]

[θ]222/[θ]208 [1, 5]: 1.02
Substance: GSGSGSGSGAUAUAUAUAUAUAUAUAUAUAGSGSGSGSG [Example 118]

[θ]222/[θ]208 [1, 6]: 0.95
[θ]222/[θ]208 [1, 3]: 0.95
Substance: WAUAUAUAUAUAU(PEG2)5 [Example 100]

[θ]222/[θ]208 [1, 6]: 1.05
θ222 nm/θ208 nm ratio [1, 4]: 1.05
Substance: WAUAUAUAUAUAUAU(PEG2)5 [Example 49]

[θ]222/[θ]208 [1, 6]: 0.88
θ222 nm/θ208 nm ratio [1, 4]: 0.88
Substance: WAUAUAUAUAUAU(PEG2)5 [Example 48]

minimum at 222 and 208 nm in the spectra ([1]; Table 11): no minimum was observed
Substance: RGDRGDRGDRGDAUAUAUAUAUAUAUAUAUAUARR [Example 75]

minimum at 222 and 208 nm in the spectra ([1]; Table 11): no minimum was observed
Substance: RAUAUAUAUAUAUAUAUAUAUAGRGDRGDRGDRGDG [Example 67]

[θ]222/[θ]208 [1, 3]: 1.06
Substance: WAUAUAUAUAUAUAUAU(PEG2)5RGDRGD(PEG2)5 [Example 110]

[θ]222/[θ]208 [1, 5]: 1.18
Substance: (PEG8)3AUAUAUAUAUAUAUAUAUAUA(PEG8)3 [Example 126]

[θ]222/[θ]208 [1, 5]: 1.06
Substance: (PEG8)2AUAUAUAUAUAUAUAUAUAUA(PEG8) [Example 122]

θ222 nm/θ208 nm ratio [1, 4]: 1.11
Substance: RGDRGDRGDAUAUAUAUAUAUAUAUAUAUARR [Example 74]
